Usually IC50 stands for the concentration that inhibits the measured activity by half. By GI50 is commonly meant the concentration giving 50% growth inhibition.

The target in test [1] is T1, human TTK (Homo sapiens, UniProt P33981).
T1 construct: amino terminal GST fusion of full length human TTK; purchased Invitrogen
T1 sequence (P33981 1-857): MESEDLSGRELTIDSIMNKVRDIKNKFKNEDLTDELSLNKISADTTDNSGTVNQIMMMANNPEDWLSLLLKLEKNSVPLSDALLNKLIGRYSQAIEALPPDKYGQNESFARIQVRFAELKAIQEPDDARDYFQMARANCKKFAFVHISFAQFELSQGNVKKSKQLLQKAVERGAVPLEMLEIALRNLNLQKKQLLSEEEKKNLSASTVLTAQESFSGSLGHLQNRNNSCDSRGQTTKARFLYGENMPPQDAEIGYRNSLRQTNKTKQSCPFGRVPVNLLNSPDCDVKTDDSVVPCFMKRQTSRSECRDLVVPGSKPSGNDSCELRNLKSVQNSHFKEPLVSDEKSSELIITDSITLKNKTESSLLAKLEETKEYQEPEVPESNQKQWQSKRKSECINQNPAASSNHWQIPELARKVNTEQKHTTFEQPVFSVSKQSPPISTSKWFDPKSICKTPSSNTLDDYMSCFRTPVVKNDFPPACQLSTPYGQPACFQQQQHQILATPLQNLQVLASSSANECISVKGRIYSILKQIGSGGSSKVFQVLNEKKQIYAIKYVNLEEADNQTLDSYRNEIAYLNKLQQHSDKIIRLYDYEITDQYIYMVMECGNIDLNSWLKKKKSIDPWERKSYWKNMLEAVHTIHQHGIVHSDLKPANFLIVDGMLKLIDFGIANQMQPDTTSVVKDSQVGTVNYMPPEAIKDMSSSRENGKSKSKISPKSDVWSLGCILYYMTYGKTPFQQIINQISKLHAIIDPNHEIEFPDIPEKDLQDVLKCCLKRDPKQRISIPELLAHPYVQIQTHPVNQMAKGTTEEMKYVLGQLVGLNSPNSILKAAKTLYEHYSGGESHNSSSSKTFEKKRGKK
Briefly: TTK inhibition assay (indirect ELISA). The settings on record: GST-TTK 0.68 nM, 16 μM ATP; read-out: IC50 Ranges TTK. The test is classed as biochemical. In general terms: In an ELISA, binding on a coated surface is turned into a signal by an enzyme label.

The target of test [2] is T2, human PLK4 (Homo sapiens, UniProt O00444).
T2 construct: amino terminal GST fusion of residues 1-391 of human PLK4; made in house; host or cells: E. coli
T2 sequence (O00444 1-391): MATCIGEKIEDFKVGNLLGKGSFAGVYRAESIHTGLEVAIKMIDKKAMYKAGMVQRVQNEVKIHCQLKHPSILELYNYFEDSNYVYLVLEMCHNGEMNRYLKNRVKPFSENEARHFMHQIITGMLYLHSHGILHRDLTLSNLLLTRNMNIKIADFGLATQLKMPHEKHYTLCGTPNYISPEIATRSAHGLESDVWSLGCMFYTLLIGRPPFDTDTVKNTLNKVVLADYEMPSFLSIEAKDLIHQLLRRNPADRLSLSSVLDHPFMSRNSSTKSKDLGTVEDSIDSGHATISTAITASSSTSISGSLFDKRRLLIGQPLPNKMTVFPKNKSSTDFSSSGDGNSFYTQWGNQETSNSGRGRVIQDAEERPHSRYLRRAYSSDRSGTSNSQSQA
Nature of the test: PLK4 inhibition assay (indirect ELISA). It is filed as biochemical. The settings on record: GST-PLK4 4 nM, 15 μM ATP; read-out: IC50 Ranges PLK4. The essentials:
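Compounds were tested either at a single 10 μM dose or across 10-point titrations (typically 0.5 to 0.001 μM), preincubated 15 min with 4 nM GST-PLK4 (human 1-391, dephosphorylated) before 15 μM ATP was added. MBP substrate phosphorylation over 30 min, pH 7.5 HEPES/MgCl2 buffer, read by HRP/TMB ELISA (450 nm). % inhibition vs. high-activity control; IC50 by logistic fit.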

For test [3], the target named is T3, Aurora B (Homo sapiens, UniProt Q96GD4).
T3 construct: purchased Invitrogen PV3970
Nature of the test: Aurora B inhibition assay (Z-Lyte). The test is classed as biochemical. The following applies: 28 nM Aurora B, 128 μM ATP; read-out: IC50 Ranges Aurora B. As for the experimental part: Aurora B inhibition was determined using the Z-Lyte assay kit from Invitrogen. The assay was performed using the recommended manufacturer's instructions with 128 μM ATP and 28 nM Aurora B (Invitrogen cat #PV3970). The % inhibition values were determined according to the manufacturer's directions and IC50 values were obtained using a non-linear 4 point logistic curve fit (XLfit4, IDBS)

The subject of test [4] is MDA-MB-231 breast cancer cells. Briefly: Cell growth inhibition, Sulforhodamine B assay, MDA-MB-231. The test is classed as cell-based. The settings on record: Homo sapiens, 120 h, 5 days culture, SRB assay, read-out: Cell Line GI50 Range MDA-MB-231. In general terms: In SRB staining, fixed cells bind dye roughly in proportion to their protein.
Test [5] deals with MDA-MB-468 breast cancer cells. Nature of the test: Cell growth inhibition, Sulforhodamine B assay, MDA-MB-468. The following applies: Homo sapiens, 120 h, 5 days culture, SRB assay, read-out: Cell Line GI50 Range MDA-MB-468. It is filed as cell-based.
Test [6] deals with HCT116 colon cancer cells. Briefly: Cell growth inhibition, Sulforhodamine B assay, HCT116. The test is classed as cell-based. The following applies: Homo sapiens, HCT-116, 120 h, 5 days culture, SRB assay, read-out: Cell Line GI50 Range HCT116.
In test [7] the test system is HT29 colon cancer cells. Briefly: Cell growth inhibition, Sulforhodamine B assay, HT29. It is filed as cell-based. The following applies: Homo sapiens, HT-29, 120 h, 5 days culture, SRB assay, read-out: Cell Line GI50 Range HT29.
Experimental: (§1) Breast cancer cells (MDA-MB-231, MDA-MB-468), colon cancer cells (HCT116, HT29) and ovarian cancer cells (PA-1, OVCAR-3) were seeded (1000 to 4000 in 80 μl per well depending on the cell growth rate) into 96 well plates 24 hours before compound overlay. Compounds were prepared as 10 mM stock solutions in 100% DMSO which were diluted with DMEM (Dulbecco's Modified Eagle's Medium) cell growth Medium (Invitrogen, Burlington, ON, Canada) containing 10% FBS (Fetal Bovine Serum) to concentrations ranging from 50 nM to 250 μM. Aliquots (20 μl) from each concentration were overlaid to 80 μl of the pre-seeded cells in the 96 well plates to make final concentrations of 10 nM to 50 μM. The cells were cultured for 5 days before the Sulforhodamine B assay (SRB) was performed to determine the compound's cell growth inhibition activity.
(§2) Sulforhodamine B (purchased from Sigma, Oakville, ON, Canada) is a water-soluble dye that binds to the basic amino acids of the cellular proteins. Thus, colorimetric measurement of the bound dye provides an estimate of the total protein mass that is related to the cell number. the cells are fixed in situ by gently aspirating off the culture media and adding 50 μl ice cold 10% Trichloroacetic Acid (TCA) per well and incubate at 4° C. for 30-60 min, The plates are washed with water five times and allowed to air dry for 5 min. Addition of 50 μl 0.4% (w/v) SRB solution in 1% (v/v) acetic acid to each well and incubatation for 30 min at RT completes the staining reaction. Following staining, plates are washed four times with 1% acetic acid to remove unbound dye and then allowed to air dry for 5 min. The stain is solubilized with 100 μl of 10 mM Tris pH 10.5 per well. Absorbance is read at 570 nm.
(§3) The percentage (%) of relative growth inhibition was calculated by comparing to DMSO treated only cells (100%). […] The GI50 was calculated using GraphPad PRISM software (GraphPad Software, Inc., San Diego, Calif., USA).
Test [8] concerns PA-1 ovarian cancer cells. Briefly: Cell growth inhibition, Sulforhodamine B assay, PA-1. It is filed as cell-based. The settings on record: 120 h, 5 days culture, SRB assay, read-out: Cell Line GI50 Range PA-1.
In test [9] the test system is OVCAR-3 ovarian cancer cells. Briefly: Cell growth inhibition, Sulforhodamine B assay, OVCAR-3. The settings on record: Homo sapiens, 120 h, 5 days culture, SRB assay, read-out: Cell Line GI50 Range OVCAR-3. It is filed as cell-based.
Experimental: as §1, §2, §3
The subject of test [10] is Colon tumor initiating cells (TICs), 12 colon. Nature of the test: Colon tumor-initiating cell growth inhibition (Alamar Blue). The test is classed as cell-based. The settings on record: 216 h, 9 days, read-out: GI50 range 12 colon. (The colour change of resazurin is a common sign of viable cells or microbes.)
Test [11] concerns Ovarian TICs, 2393A ovarian. Briefly: Ovarian tumor-initiating cell growth inhibition (Alamar Blue). It is filed as cell-based. The settings on record: 144 h, 6 days, read-out: GI50 range 2393A ovarian.

T3 sequence (Q96GD4 whole entry): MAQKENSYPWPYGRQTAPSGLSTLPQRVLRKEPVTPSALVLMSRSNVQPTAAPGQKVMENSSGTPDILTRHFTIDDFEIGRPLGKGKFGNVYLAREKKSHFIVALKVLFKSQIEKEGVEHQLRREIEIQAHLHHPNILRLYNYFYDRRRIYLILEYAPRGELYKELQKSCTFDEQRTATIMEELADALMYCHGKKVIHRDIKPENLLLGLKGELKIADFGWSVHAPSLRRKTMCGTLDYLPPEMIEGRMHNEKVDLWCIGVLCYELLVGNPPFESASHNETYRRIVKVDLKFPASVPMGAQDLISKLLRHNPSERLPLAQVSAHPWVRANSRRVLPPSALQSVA

In the case of `COCCN1CCC(Oc2ccc(-c3n[nH]c4ccc(C(=O)NC(c5ccccc5)C5CC5)cc34)cc2)CC1` (stereo not shown) [Example A98, N-(cyclopropyl(phenyl)methyl)-3-(4-((1-(2-methoxyethyl)piperidin-4-yl)oxy)phenyl)-1H-indazole-5-carboxamide], the concentration for half-maximal inhibition (IC50) in [1], in test [2] and in test [3] was at most 5 µM throughout. Further, the GI50 in test [4], in [5], in test [6], in test [7], in [8] and in test [9] was at most 5 µM in each case. Also, the 50% growth inhibitory concentration (GI50) in test [10] and in test [11] was at most 5 µM throughout.

For the molecule `CN1CCC(Oc2ccc(-c3n[nH]c4ccc(NC(=O)C(c5ccccc5)C5CC5)cc34)cc2)CC1` (stereo not shown) [Example A138, 2-cyclopropyl-N-(3-(4-((1-methylpiperidin-4-yl)oxy)phenyl)-1H-indazol-5-yl)-2-phenylacetamide], the IC50 in test [1], in test [2] and in test [3] was at most 5 µM each time. Further, the concentration for 50% growth inhibition (GI50) in test [4], in test [5], in [6], in [7], in test [8] and in [9] was at most 5 µM in each case. Moreover, the GI50 in test [10] and in [11] was at most 5 µM in each case.

As to `CN1[C@@H]2CC[C@H]1C[C@@H](Oc1ccc(-c3n[nH]c4ccc(C(=O)NC(c5ccccc5)C5CC5)cc34)cc1)C2` (stereo partly drawn) [Example A178, N-(cyclopropyl(phenyl)methyl)-3-(4-(((1R,3r,5S)-8-methyl-8-azabicyclo[3.2.1]octan-3-yl)oxy)phenyl)-1H-indazole-5-carboxamide], the IC50 in test [1], in [2] and in test [3] was at most 5 µM throughout. Besides, the GI50 in test [4], in [5], in test [6], in test [7], in [8] and in [9] was at most 5 µM throughout. Moreover, the GI50 in [10] and in test [11] was at most 5 µM throughout.

On to `CN1CCC(Oc2ccc(-c3n[nH]c4ccc(C(=O)NC(c5ccccc5Cl)C5CC5)cc34)cc2)CC1` (stereo not shown) [Example A150, N-((2-chlorophenyl)(cyclopropyl)methyl)-3-(4-((1-methylpiperidin-4-yl)oxy)phenyl)-1H-indazole-5-carboxamide], for which the IC50 in [1], in test [2] and in test [3] was at most 5 µM in each case. Besides, the GI50 in test [4], in [5], in [6], in [7], in test [8] and in test [9] was at most 5 µM each time. For the same molecule, the 50% growth inhibitory concentration (GI50) in test [10] and in test [11] was at most 5 µM each time.

Turning to `CN1CCC(Oc2ccc(-c3n[nH]c4ccc(C(=O)NC(c5ccccc5)C5CCOCC5)cc34)cc2)CC1` (stereo not shown) [Example A177, 3-(4-((1-methylpiperidin-4-yl)oxy)phenyl)-N-(phenyl(tetrahydro-2H-pyran-4-yl)methyl)-1H-indazole-5-carboxamide], the IC50 in test [1], in [2] and in test [3] was at most 5 µM each time. Besides, the GI50 in test [4], in test [5], in [6], in test [7], in test [8] and in test [9] was at most 5 µM each time. Moreover, the GI50 in [10] and in [11] was at most 5 µM each time.

As for `CN1CCC(Oc2ccc(-c3n[nH]c4ccc(C(=O)N[C@@H](c5sccc5Cl)C5CC5)cc34)cc2)CC1` [Example A166, (R)—N-((3-chlorothiophen-2-yl)(cyclopropyl)methyl)-3-(4-((1-methylpiperidin-4-yl)oxy)phenyl)-1H-indazole-5-carboxamide], the 50% inhibitory concentration (IC50) in test [1], in test [2] and in test [3] was at most 5 µM throughout. The GI50 in test [4], in test [5], in [6], in test [7], in test [8] and in test [9] was at most 5 µM in each case. The 50% growth inhibitory concentration (GI50) in [10] and in test [11] was at most 5 µM each time.

On to `CN1CCC(Oc2ccc(-c3n[nH]c4ccc(C(=O)N[C@H](CCO)c5ccccc5)cc34)cc2)CC1` [Example A137, (R)—N-(3-hydroxy-1-phenylpropyl)-3-(4-((1-methylpiperidin-4-yl)oxy)phenyl)-1H-indazole-5-carboxamide], for which the IC50 in test [1], in test [2] and in test [3] was at most 5 µM each time. Moreover, the concentration for 50% growth inhibition (GI50) in [4], in test [5], in test [6], in test [7], in test [8] and in [9] was at most 5 µM each time. Moreover, the GI50 in test [10] and in test [11] was at most 5 µM each time.

As to `C[C@@H](NC(=O)c1ccc2[nH]nc(-c3ccc(OC4CCN(C)CC4)cc3)c2c1)c1ccccc1F` [Example A134, (R)—N-(1-(2-fluorophenyl)ethyl)-3-(4-((1-methylpiperidin-4-yl)oxy)phenyl)-1H-indazole-5-carboxamide], the IC50 in test [1], in test [2] and in test [3] was at most 5 µM throughout. Further, the concentration for 50% growth inhibition (GI50) in [4] is at most 5 µM; in [5], at most 5 µM; in test [6], at most 5 µM; in [7], at most 5 µM; in [8], at most 5 µM; in test [9] it was 5 to 20 µM. Besides, the GI50 in [10] and in test [11] was at most 5 µM throughout.

Source of the values: US20140051679A1, “KINASE INHIBITORS AND METHOD OF TREATING CANCER WITH SAME” (UNIVERISTY HEALTH NETWORKS, priority 2011, published 2014).
